Laboratory results published in patent US10342786B2, “P38 kinase inhibitors reduce DUX4 and downstream gene expression for the treatment of FSHD” (Fulcrum Therapeutics, Inc., priority 2017, dated 2019).

Test system: active Caspase-3 in FSHD myotubes
Assay: Apoptosis by active Caspase-3 in FSHD myotubes
Format: cell-based, human
Settings: FSHD1 and FSHD2 lines; vs healthy control line CTRL-FTCE-014
Experimental: Briefly, cells were fixed in 4% paraformaldehyde and […] for 10 min at room temperature. Cells were permeabilized with PBST (1×PBS solution with 0.1% Triton X-100) before blocking with 10% Normal Donkey Serum or 3% BSA (NDS) in PBST. Cells were then incubated with appropriately diluted primary antibodies in PBST with 5% NDS for 1 hours at room temperature or 12 hours at 4° C., washed with PB ST for 3 times at room temperature and then incubated with desired secondary antibodies in TBST with 5% NDS and DAPI to counter stain the nuclei. DUX4 was detected by immunocytochemistry using the E5-5 antibody in differentiated FSHD myotubes. Activated Caspase-3 was detected cell signaling antibody that we're using for ICC, Asp175 (https://www.cellsignal.com/products/primary-antibodies/cleaved-caspase-3-asp175-antibody/9661).
Apoptosis was measured by active Caspase-3 levels in FSHD myotubes in vitro as described in Materials and Methods. Apoptosis was detected in a sporadic manner in a subset of myotubes in culture as shown by the white circles and magnified region in FIG. 9A. Active Caspase-3 signal was quantified in FSHD myotubes that had been treated with FTX-1821 at different concentrations (FIG. 9B). […] No change in active Caspase-3 signal was observed following DMSO treatment.

Structure (SMILES): Cn1c(=O)c(Oc2ccc(F)cc2F)cc2cnc(NC(CCO)CCO)nc21 [Pamapimod, 6-(2,4-difluorophenoxy)-2-((1,5-dihydroxypentan-3-yl)amino)-8-methylpyrido[2,3-d]pyrimidin-7(8H)-one]
- apoptosis (active caspase-3): reduction
